Reference: PubChem BioAssay (NCI)
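Five concentrations, 48 hours, 96-well plates. GI50: concentration for 50% inhibition of growth. TGI denotes the concentration required for complete inhibition of growth.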

Experiments:
Assay in all cases: NCI anticancer screen, dose series, 48 h
HCC-2998 colon = system: HCC-2998 colon
MCF7 breast = system: MCF7 breast
CAKI-1 renal = system: CAKI-1 renal
RPMI-8226 leukemia = system: RPMI-8226 leukemia
MALME-3M melanoma = system: MALME-3M melanoma
MDA-MB-435 = system: MDA-MB-435
NCI-H226 lung = system: NCI-H226 lung
BT-549 breast = system: BT-549 breast
SK-MEL-5 melanoma = system: SK-MEL-5 melanoma
HOP-92 NSCLC = system: HOP-92 NSCLC
SW-620 colon = system: SW-620 colon
SK-MEL-2 melanoma = system: SK-MEL-2 melanoma
SR leukemia = system: SR leukemia
SK-MEL-28 melanoma = system: SK-MEL-28 melanoma
NCI-H23 lung = system: NCI-H23 lung
786-0 renal = system: 786-0 renal
UACC-62 melanoma = system: UACC-62 melanoma
MDA-MB-231 breast = system: MDA-MB-231 breast
LOX IMVI melanoma = system: LOX IMVI melanoma
K-562 leukemia = system: K-562 leukemia
COLO 205 colon = system: COLO 205 colon
KM12 colon = system: KM12 colon
HS 578T breast = system: HS 578T breast
SNB-75 CNS = system: SNB-75 CNS
OVCAR-5 ovarian = system: OVCAR-5 ovarian
SF-268 CNS = system: SF-268 CNS
IGROV1 ovarian = system: IGROV1 ovarian
HCT-15 colon = system: HCT-15 colon
EKVX NSCLC = system: EKVX NSCLC
HCT-116 colon = system: HCT-116 colon
HT29 colon = system: HT29 colon
UO-31 renal = system: UO-31 renal
PC-3 prostate = system: PC-3 prostate
MDA-MB-468 breast = system: MDA-MB-468 breast
UACC-257 melanoma = system: UACC-257 melanoma
OVCAR-8 ovarian = system: OVCAR-8 ovarian
NCI-H522 lung = system: NCI-H522 lung
HL-60(TB) leukemia = system: HL-60(TB) leukemia
A498 renal = system: A498 renal
T-47D breast = system: T-47D breast
M14 melanoma = system: M14 melanoma
NCI/ADR-RES ovarian = system: NCI/ADR-RES ovarian
HOP-62 NSCLC = system: HOP-62 NSCLC
ACHN renal = system: ACHN renal
RXF 393 renal = system: RXF 393 renal
SF-295 CNS = system: SF-295 CNS
SNB-19 CNS = system: SNB-19 CNS
OVCAR-4 ovarian = system: OVCAR-4 ovarian
U251 CNS = system: U251 CNS
NCI-H460 lung = system: NCI-H460 lung
TK-10 renal = system: TK-10 renal
OVCAR-3 ovarian = system: OVCAR-3 ovarian
SF-539 CNS = system: SF-539 CNS
SK-OV-3 ovarian = system: SK-OV-3 ovarian
CCRF-CEM leukemia = system: CCRF-CEM leukemia
DU-145 prostate = system: DU-145 prostate
MOLT-4 leukemia = system: MOLT-4 leukemia
SN12C renal = system: SN12C renal
A549 NSCLC = system: A549 NSCLC

For `CS(=O)(=O)Nc1cncc(-c2ccc3ncnc(NCc4ccccc4)c3c2)c1`, the GI50 (HCC-2998 colon) was 11.5 µM, the TGI (HCC-2998 colon) was 23.8 µM and the GI50 (MCF7 breast) was 4.56 µM. For the same molecule, the TGI (MCF7 breast) was 24.6 µM, the GI50 (CAKI-1 renal) was 12.8 µM and the TGI (CAKI-1 renal) was 30.2 µM. The GI50 (RPMI-8226 leukemia) was 15.1 µM, the TGI (RPMI-8226 leukemia) was 38 µM and the GI50 (MALME-3M melanoma) was 4.17 µM. It also gave a TGI (MALME-3M melanoma) of 21.5 µM, a GI50 (MDA-MB-435) of 10.8 µM and a TGI (MDA-MB-435) of 27.4 µM. For the same molecule, the GI50 (NCI-H226 lung) was 14 µM, the TGI (NCI-H226 lung) was 37.1 µM and the GI50 (BT-549 breast) was 3.63 µM. It also gave a TGI (BT-549 breast) of 21.5 µM, a GI50 (SK-MEL-5 melanoma) of 12.9 µM and a TGI (SK-MEL-5 melanoma) of 25.6 µM. The GI50 (HOP-92 NSCLC) was 3.92 µM, the TGI (HOP-92 NSCLC) was 20.1 µM and the GI50 (SW-620 colon) was 17.1 µM. The TGI (SW-620 colon) was 41.6 µM, the GI50 (SK-MEL-2 melanoma) was 5.75 µM and the TGI (SK-MEL-2 melanoma) was 19.3 µM. For the same molecule, the GI50 (SR leukemia) was 8.84 µM, the TGI (SR leukemia) was 40.3 µM and the GI50 (SK-MEL-28 melanoma) was 11 µM. It also gave a TGI (SK-MEL-28 melanoma) of 38.3 µM, a GI50 (NCI-H23 lung) of 12.7 µM and a TGI (NCI-H23 lung) of 28.1 µM. For the same molecule, the GI50 (786-0 renal) was 15 µM, the TGI (786-0 renal) was 37.3 µM and the GI50 (UACC-62 melanoma) was 7.19 µM. For the same molecule, the TGI (UACC-62 melanoma) was 20.4 µM, the GI50 (MDA-MB-231 breast) was 12.3 µM and the TGI (MDA-MB-231 breast) was 27 µM. It also gave a GI50 (LOX IMVI melanoma) of 11.9 µM, a TGI (LOX IMVI melanoma) of 24.2 µM and a GI50 (K-562 leukemia) of 18.7 µM. The TGI (K-562 leukemia) was > 100 µM, the GI50 (COLO 205 colon) was 13.2 µM and the TGI (COLO 205 colon) was 26.6 µM. It also gave a GI50 (KM12 colon) of 14.2 µM, a TGI (KM12 colon) of 30 µM and a GI50 (HS 578T breast) of 3.36 µM. It also gave a TGI (HS 578T breast) of 20.5 µM, a GI50 (SNB-75 CNS) of 6.7 µM and a TGI (SNB-75 CNS) of 32.8 µM. It also gave a GI50 (OVCAR-5 ovarian) of 12.3 µM, a TGI (OVCAR-5 ovarian) of 32.9 µM and a GI50 (SF-268 CNS) of 10.5 µM. For the same molecule, the TGI (SF-268 CNS) was 36.7 µM, the GI50 (IGROV1 ovarian) was 7.73 µM and the TGI (IGROV1 ovarian) was 22.9 µM. For the same molecule, the GI50 (HCT-15 colon) was 23.3 µM, the TGI (HCT-15 colon) was 98.3 µM and the GI50 (EKVX NSCLC) was 12.9 µM. It also gave a TGI (EKVX NSCLC) of 31.4 µM, a GI50 (HCT-116 colon) of 13.9 µM and a TGI (HCT-116 colon) of 29.1 µM. It also gave a GI50 (HT29 colon) of 14.4 µM, a TGI (HT29 colon) of 30 µM and a GI50 (UO-31 renal) of 12.1 µM. The TGI (UO-31 renal) was 36.5 µM, the GI50 (PC-3 prostate) was 14.6 µM and the TGI (PC-3 prostate) was 38.3 µM. The GI50 (MDA-MB-468 breast) was 2.14 µM, the TGI (MDA-MB-468 breast) was 8.25 µM and the GI50 (UACC-257 melanoma) was 13.8 µM. It also gave a TGI (UACC-257 melanoma) of 51.6 µM, a GI50 (OVCAR-8 ovarian) of 19.1 µM and a TGI (OVCAR-8 ovarian) of 79 µM. It also gave a GI50 (NCI-H522 lung) of 4.21 µM, a TGI (NCI-H522 lung) of 18.9 µM and a GI50 (HL-60(TB) leukemia) of 10.3 µM. It also gave a TGI (HL-60(TB) leukemia) of 40.9 µM, a GI50 (A498 renal) of 13.1 µM and a TGI (A498 renal) of 36.1 µM. The GI50 (T-47D breast) was 2.85 µM, the TGI (T-47D breast) was 12.7 µM and the GI50 (M14 melanoma) was 14.6 µM. The TGI (M14 melanoma) was 45.7 µM, the GI50 (NCI/ADR-RES ovarian) was > 100 µM and the TGI (NCI/ADR-RES ovarian) was > 100 µM. It also gave a GI50 (HOP-62 NSCLC) of 12.2 µM, a TGI (HOP-62 NSCLC) of 35 µM and a GI50 (ACHN renal) of 20.2 µM. The TGI (ACHN renal) was > 100 µM, the GI50 (RXF 393 renal) was 10.8 µM and the TGI (RXF 393 renal) was 26.6 µM. The GI50 (SF-295 CNS) was 16.4 µM, the TGI (SF-295 CNS) was 39.4 µM and the GI50 (SNB-19 CNS) was 9.74 µM. For the same molecule, the TGI (SNB-19 CNS) was 26.2 µM, the GI50 (OVCAR-4 ovarian) was 12.2 µM and the TGI (OVCAR-4 ovarian) was 50.2 µM. It also gave a GI50 (U251 CNS) of 7.54 µM, a TGI (U251 CNS) of 41 µM and a GI50 (NCI-H460 lung) of 25.6 µM. The TGI (NCI-H460 lung) was 94.3 µM, the GI50 (TK-10 renal) was 10.7 µM and the TGI (TK-10 renal) was 29.9 µM. It also gave a GI50 (OVCAR-3 ovarian) of 5.93 µM, a TGI (OVCAR-3 ovarian) of 21.6 µM and a GI50 (SF-539 CNS) of 11.9 µM. The TGI (SF-539 CNS) was 27.6 µM, the GI50 (SK-OV-3 ovarian) was 15.5 µM and the TGI (SK-OV-3 ovarian) was 34.9 µM. The GI50 (CCRF-CEM leukemia) was 4.58 µM, the TGI (CCRF-CEM leukemia) was 33.3 µM and the GI50 (DU-145 prostate) was 22.2 µM. The TGI (DU-145 prostate) was > 100 µM, the GI50 (MOLT-4 leukemia) was 5.53 µM and the TGI (MOLT-4 leukemia) was 74 µM. For the same molecule, the GI50 (SN12C renal) was 12.4 µM, the TGI (SN12C renal) was 39.1 µM and the GI50 (A549 NSCLC) was 15.5 µM. For the same molecule, the TGI (A549 NSCLC) was 31.7 µM.
